Experimental data from patent publication US20080207522A1, “Antimicrobial Peptides” (priority 2004, published 2008).
Ends that are not written are not given here.

Legend:
[1] = test system: Staphylococcus aureus ATCC25923; settings: ATCC25923
Method: (§1) Minimal inhibitory concentration (MIC) determination. The MICs of the peptides were measured using a modified broth microdilution method in Mueller Hinton (MH) medium. Wu et al., J. Biol. Chem. 274: 29-35, 1999. Briefly, the peptides were dissolved and stored in glass vials. The assay was performed in sterile 96-well polypropylene microtitre plates were used. Serial dilutions of the peptides to be assayed were performed in 0.01% acetic acid (Fisher) containing 0.2% bovine serum albumin (Boehringer Mannheim GmbH) at 10× the desired final concentration. Ten microlitres of the 10× peptides were added to each well of a 96-well polypropylene plate containing 90 μl of MH media per well. Bacteria were added to the plate from an overnight culture at 2-7×10^5 colony forming units/ml and incubated over night at 37° C. The MIC was taken as the concentration at which no growth was observed.
(§2) Strains. For the killing assay a mini-Tn5-lux mutant in Pseudomonas aeruginosa H103 was used. The strain is called H1001 and contains a fliC::luxCDABE transcriptional fusion resulting in constitutive expression of luciferase. The bacterial strains used for the antimicrobial activity assays included Escherichia coli UB1005 (F-, nalA37, metB1), a wild-type Salmonella enterica ssp. Typhimurium (S. Typhimurium), wild-type Pseudomonas aeruginosa PAO1 strain H103, Enterococcus faecalis ATCC29212, Staphylococcus aureus ATCC25923, and a clinical isolate of Staphylococcus epidermidis obtained from Dr. D. Speert (Department of Medicine, University of British Columbia). Antifungal activity was tested using a lab isolate of Candida albicans obtained from Dr. B. Dill (Department of Microbiology and Immunology, University of British Columbia).
(§3) In addition, the parent peptide Bac2A was included in these studies as a standard. The minimal inhibitory concentrations (MIC) were determined for the important medical pathogens Pseudomonas aeruginosa, Escherichia coli, Salmonella typhimurium, Staphylococcus aureus, Staphylococcus epidermidis, Enterococcus faecaelis, and the yeast Candida albicans in Mueller-Hinton media.

[2] = test system: Salmonella enterica ssp. Typhimurium; settings: ssp. Typhimurium
Method: as §1, §2, §3

[3] = test system: Staphylococcus epidermidis
Method: as §1, §2, §3

[4] = test system: Enterococcus faecalis ATCC29212; settings: ATCC29212
Method: as §1, §2, §3

Candida albicans = test system: Candida albicans
Method: as §1, §2, §3

[5] = test system: Pseudomonas aeruginosa PAO1 strain H103; settings: PAO1
Method: as §1, §2, §3

[6] = test system: Pseudomonas aeruginosa strain H1001 fliC::luxCDABE; experiment: Luminescence-based assay for the non-cleaved (bound) peptides on cellulose membranes; assay type: cell-based; settings: for Luminescence at the given time in minutes: 0 / Luminescence at the given time in minutes: 20 / Luminescence at the given time in minutes: 40 / Luminescence at the given time in minutes: 60 / Luminescence at the given time in minutes: 80 / Luminescence at the given time in minutes: 100 / Luminescence at the given time in minutes: 120 / Luminescence at the given time in minutes: 180 / Luminescence at the given time in minutes: 240: cellulose-bound peptide; for Luminescence at the given time in minutes: 0: 0 min; for Luminescence at the given time in minutes: 20: 20 min; for Luminescence at the given time in minutes: 40: 40 min; for Luminescence at the given time in minutes: 60: 60 min; for Luminescence at the given time in minutes: 80: 80 min; for Luminescence at the given time in minutes: 100: 100 min; for Luminescence at the given time in minutes: 120: 120 min; for Luminescence at the given time in minutes: 180: 180 min; for Luminescence at the given time in minutes: 240: 240 min
Method in brief: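 Peptides remained bound to cellulose spots, which were ethanol-washed and equilibrated in 100 mM Tris pH 7.3. Constitutively lux-expressing P. aeruginosa (OD600 0.35 culture diluted 1:25) added in 10 mM Tris-HCl pH 7.3, 20 mM glucose at 37° C. Luminescence (RLU) followed over 14 time points; peptides binned into six activity classes.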

[7] = test system: Pseudomonas aeruginosa strain H1001; experiment: Assay for the cleaved (free, soluble) peptides from cellulose support, luminescence killing assay; assay type: cell-based; set-up: key: 1: Peptides showing stronger killing than Bac2A at a 4 to 8-fold higher dilution; Peptides showing stronger killing compared to that of Bac2A at a 4-fold higher dilution; 3: Peptides similar to Bac2A; 4: Peptides similar to Bac2A at the highest concentration but demonstrating weaker killing at a 2-fold dilution; 5: Peptides giving very weak or no killing at a 2-fold dilution; 6: Peptides with weak killing activity at the highest concentration; settings: for Soluble Class: Table 5, free peptides; for Activity Class Soluble: free (cleaved) peptides, killing relative to Bac2A
Method in brief: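 Cellulose-synthesized peptides (amidated C-terminus, two β-alanines) cleaved by ammonia, released from punched spots 30 min at 37 °C, then serially diluted. P. aeruginosa H1001 (constitutive fliC::luxCDABE) overnight culture diluted 1:500 in LB or 100 mM Tris pH 7.3/20 mM glucose. Killing followed as time-dependent luminescence loss at 37 °C.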

Row | Substance | MIC S. aureus [1] [µg/mL] | MIC E. faecalis [4] [µg/mL] | MIC C. albicans (Candida albicans) [µg/mL] | MIC S. Typhim. [2] [µg/mL] | MIC S. epi. [3] [µg/mL] | MIC P. aerug [5] [µg/mL] | also measured
1 | ILRRVRVRAVAI-NH2 (C-terminus assumed) [Bac022] | 125 | 272 | 272 | – | – | – | MIC S. typhimurium [2]: 272 µg/mL; MIC S. epidermidis [3]: 136 µg/mL; MIC P. aeruginosa [5]: 250 µg/mL; MIC P. aeruginosa Muller Hinton Media [5]: 250 µg/mL; MIC P. aeruginosa With 10 μM Mg [5]: 250 µg/mL; MIC P. aeruginosa With 2 mM Mg [5]: >250 µg/mL; Luminescence at the given time in minutes: 0 [6]: 4336 RLU; Luminescence at the given time in minutes: 20 [6]: 7179 RLU; Luminescence at the given time in minutes: 40 [6]: 5180 RLU; Luminescence at the given time in minutes: 60 [6]: 4505 RLU; Luminescence at the given time in minutes: 80 [6]: 3675 RLU; Luminescence at the given time in minutes: 100 [6]: 3365 RLU; Luminescence at the given time in minutes: 120 [6]: 3044 RLU; Luminescence at the given time in minutes: 180 [6]: 2912 RLU; Luminescence at the given time in minutes: 240 [6]: 2966 RLU; Activity Class bound ([6]; uncleaved cellulose-bound peptides): 5 (Peptides reducing luminescence (lux) values to between 1500 to 3000 after 240 min.); Soluble Class [7]: 6; Activity Class Soluble [7]: 6
2 | RAVAVIIRLRRV-NH2 (C-terminus assumed) [Bac014] | 13 | 11 | 8 | – | – | – | MIC S. typhimurium [2]: 11 µg/mL; MIC S. epidermidis [3]: 8 µg/mL; MIC P. aeruginosa [5]: 33 µg/mL; MIC P. aeruginosa Muller Hinton Media [5]: 33 µg/mL; MIC P. aeruginosa With 10 μM Mg [5]: 16 µg/mL; MIC P. aeruginosa With 2 mM Mg [5]: 63 µg/mL; Luminescence at the given time in minutes: 0 [6]: 5233 RLU; Luminescence at the given time in minutes: 20 [6]: 8217 RLU; Luminescence at the given time in minutes: 40 [6]: 7835 RLU; Luminescence at the given time in minutes: 60 [6]: 7867 RLU; Luminescence at the given time in minutes: 80 [6]: 8100 RLU; Luminescence at the given time in minutes: 100 [6]: 8931 RLU; Luminescence at the given time in minutes: 120 [6]: 8956 RLU; Luminescence at the given time in minutes: 180 [6]: 10738 RLU; Luminescence at the given time in minutes: 240 [6]: 12876 RLU; Soluble Class [7]: 1; Activity Class Soluble [7]: 1
3 | RLARIVKIRVAR-NH2 (C-terminus assumed) [Bac323] | 125 | 125 | 31 | 63 | 31 | 31 | –
4 | RLARIVVFRVAR-NH2 (C-terminus assumed) [Bac338] | >250 | >250 | >250 | >250 | >250 | >250 | –
5 | RLARIVVIRV-NH2 (C-terminus assumed) [Bac103] | 46 | 23 | 23 | 46 | 11 | 46 | –
6 | RLARIVVIRVA-NH2 (C-terminus assumed) [Bac101] | 63 | 31 | 63 | 31 | 16 | 63 | –
7 | RLARIVVIRVAG-NH2 (C-terminus assumed) [Bac415] | 63 | 31 | 63 | 63 | 31 | 63 | –
8 | RLARQVVIRVAR-NH2 (C-terminus assumed) [Bac289] | 8 | 4 | 8 | 8 | 2 | 16 | –
9 | RLARRVVIRVAR-NH2 (C-terminus assumed) [Bac290] | 63 | 125 | 125 | 31 | 16 | 63 | –
10 | RLRRIVVIRVAR-NH2 (C-terminus assumed) [Bac252] | 8 | 8 | 16 | 8 | 2 | 8 | –
11 | RLRRIVVIRVRR-NH2 (C-terminus assumed) [Bac433] | 8 | 4 | 31 | 8 | 2 | 8 | –
12 | RLWRIVVIRVAR-NH2 (C-terminus assumed) [Bac256] | 2 | 2 | 8 | 8 | 0.5 | 8 | –
13 | RRARIVVIRVAR-NH2 (C-terminus assumed) [Bac233] | 16 | 16 | 8 | 8 | 2 | 8 | –
14 | RRWRIVVIRVRR-NH2 (C-terminus assumed) [Bac430] | 2 | 4 | 4 | 4 | 0.2 | 2 | –
15 | RRWVIWRR-NH2 (C-terminus assumed) [Bac437] | 16 | 32 | 63 | 31 | 8 | 250 | –
16 | RWWKIWVIRWWR-NH2 (C-terminus assumed) [Bac432] | 8 | 8 | 31 | 16 | 1 | 31 | –
